These results are taken from patent EP0087858A1, “New chromanone compounds and pharmaceutical compositions containing them” (priority 1982, dated 1983).

A short description of one data set: Acute toxicity. Conditions: mouse, in vivo, male dd mice, deaths up to 72 hours. As for the experimental part: Groups of 10 male dd mice weighing some 18 g were orally or intraperitoneally administered the examined drugs and the number of death up to 72 hours later was recorded.
An example of results is shown in Table 1: the drugs are those numbered correspondingly above. Administration is oral (p.o.) or intraperitoneal (i.p.)

For data set [1], the system named is plantaroedema induced by carrageenin. In words: Inhibition of plantaroedema induced by carrageenin. The class given is in vivo. Conditions: rats, 60 minutes before 0.1 ml of 1% carrageenin into the sole. On the procedure:
60 minutes after the drugs had been orally administered to groups of rats, 0.1 ml of 1% carrageenin solution was injected subcutaneously into the sole. The rate of increase in volume of the hind food compared with volume before carrageenin treatment was regarded as oedema rate.

Data set [2] has as its system stomach and intestinal tracts. Further details: species or system rats. The conditions noted are these: rat, in vivo, po.
A further data set deals with dd mice. In words: Analgesic effects by a modified Haffner method. It is filed as in vivo. Conditions: 2 mg/kg morphine hydrochloride s.c. 30 minutes later, tail squeeze. On the procedure: Groups of 10 dd mice were orally administered the examined drugs and 30 minutes later 2 mg/kg of morphine hydrochloride, the threshold dose, was injected subcutaneously. At 15, 30, 45 and 60 minutes thereafter, the root of mouse's tail was squeezed with a Kocher's forceps.

The subject of a further data set is male dd mice. In words: Analgesic effects by acetic acid writhing test. It is filed as in vivo. The conditions noted are these: inhibition rate of stretching after 0.6% acetic acid i.p. On the procedure:
30 minutes after the examined drugs were given orally, 0.1 ml/10 g of 0.6% acetic acid solution was intraperitoneally administered to groups of 10 male dd mice weighing some 18 g. The number of stretching was calculated during an observation period of 15 to 20 minutes after acetic acid treatment. The average inhibition rate of stretching among 8 animals was regarded as the inhibition rate of the drug, excluding 2 animals showing maximum and minimum number of stretching.
On the technique in general: An intraperitoneal irritant provokes the stretching counted in writhing tests.

Data set [3] relates to gastric irritation/ulceration. In words: Gastric irritation. The class given is in vivo. Conditions: rats, 8 hours after dosing, aspirin (150 mg/kg) or indomethacin (40 mg/kg) taken as 100%. On the procedure: 8 hours after the examined drugs were orally administered to groups of rats, degree of gastric irritation/ulceration produced by the drug is compared with that produced by aspirin (150 mg/kg) or indomethacin (40 mg/kg). Percentage rate of production of gastric irritation, compared with the control drug, (that produced by aspirin or indomethacin was taken as 100%), was regarded as the gastric irritation rate.

The compound `CCCCC1C(=O)N(c2ccccc2)N(c2ccccc2)C1=O` [Phenylbutazone, reference compound] had a mortality at 72 h in “Acute toxicity” (po, 400 mg/kg p.o.) of 30%. For the same compound, the “oedema rate (%)” value is recorded as 33% in data set [1] (50 mg/kg orally) and 50% in data set [1] (100 mg/kg orally). Also, the “findings in sections of the stomach and intestinal tracts” value in data set [2] is recorded as “mucosal disorder or ulcer formation”.

With `O=C(O)Cc1ccc2c(c1)C(=O)CCO2` [Compound 1, (4-chromanon-6-yl) acetic acid], the “analgesic effect (%)” value with dd mice (50 mg/kg orally) amounted to 15%; in the data set on dd mice (100 mg/kg orally), 30%; in the data set on male dd mice (50 mg/kg orally), 31%; in the data set with male dd mice (100 mg/kg orally) it was 45%.

For the compound `CC(C(=O)O)c1cc(Cl)c2c(c1)C(=O)CC(C)(C)O2` (stereo not drawn) [Compound 3, 2-(8-chloro-2,2-dimethyl-4-chromanon-6-yl)propionic acid], in “Acute toxicity” (po, 400 mg/kg p.o.), the mortality at 72 h came out at 0%. Further, in data set [1] (100 mg/kg orally), the “oedema rate (%)” value turned out to be 48%. Moreover, the “analgesic effect (%)” value came to 20% in the data set with dd mice (50 mg/kg orally), 25% in the data set on dd mice (100 mg/kg orally), 27% in the data set on male dd mice (50 mg/kg orally) and 59% in the data set with male dd mice (100 mg/kg orally).

`CC(C)Cc1ccc(C(C)C(=O)O)cc1` (stereo not drawn) [Ibuprofen, reference compound]: in data set [1] (100 mg/kg orally), the “oedema rate (%)” value stood at 54%.

In the case of `CC(C(=O)O)c1ccc2c(c1)C(=O)CC(C)(C)O2` (stereo not drawn) [Compound 4, 2-(2,2-dimethyl-4-chromanon-6-yl)propionic acid], the mortality at 72 h in “Acute toxicity” (ip, 200 mg/kg i.p.) came to 0%; in the data set “Acute toxicity” (po, 300 mg/kg p.o.) it was 0%. Besides, the “oedema rate (%)” value in data set [1] (50 mg/kg orally) was found to be 48%. Further, the “gastric irritation rate(%)” value in data set [3] (50 mg/kg orally) is given as 8%.

`Cc1c(N(C)C)c(=O)n(-c2ccccc2)n1C` [Aminopyrine, reference compound]: in “Acute toxicity” (po, 600 mg/kg p.o.), the mortality at 72 h came out at 20%. Also, the “analgesic effect (%)” value with dd mice (50 mg/kg orally) is given as 20%; in the data set with dd mice (100 mg/kg orally), 35%; in the data set with male dd mice (50 mg/kg orally) it was 17%; with male dd mice (100 mg/kg orally), 57%.

`CC(C(=O)O)c1cc(Cl)c2c(c1)C(=O)CCO2` (stereo not drawn) [Compound 5, 2-(8-chloro-4-chromanon-6-yl)propionic acid]: the mortality at 72 h came out at 0% in “Acute toxicity” (po, 400 mg/kg p.o.) and 0% in “Acute toxicity” (po, 800 mg/kg p.o.). Moreover, the results for the “analgesic effect (%)” value with dd mice (50 mg/kg orally) and in the data set on dd mice (100 mg/kg orally) were 20% and 45%, respectively.

For the compound `CC(C(=O)O)c1ccc2c(c1)C(=O)C(C)(C)O2` (stereo not drawn) [Compound 6, 2-(2,2-dimethyl-2,3-dihydrobenzofuran-3-one-5-yl)propionic acid], the mortality at 72 h in the data set “Acute toxicity” (ip, 200 mg/kg i.p.) came out at 0%; in “Acute toxicity” (po, 300 mg/kg p.o.) it was 0%. The “oedema rate (%)” value in data set [1] (50 mg/kg orally) was determined as 34%; in data set [1] (100 mg/kg orally), 53%. Also, the “analgesic effect (%)” value in the data set on dd mice (50 mg/kg orally) worked out at 20%; in the data set with dd mice (100 mg/kg orally) it was 40%. Moreover, the “gastric irritation rate(%)” value in data set [3] (100 mg/kg orally) worked out at 25%.

For `CC1(C)CC(=O)c2cc(CC(=O)O)ccc2O1` [Compound 2, (2,2-dimethyl-4-chromanon-6-yl) acetic acid], in “Acute toxicity” (po, 600 mg/kg p.o.), the mortality at 72 h is 0%. In addition, the “oedema rate (%)” value in data set [1] (100 mg/kg orally) is given as 46%. For the same compound, the “analgesic effect (%)” value with male dd mice (50 mg/kg orally) was 13%; in the data set on male dd mice (100 mg/kg orally), 62%.

The mortality is the percentage killed. Higher therefore signals fewer survivors.
